In series [1] the test system is zebrafish. Briefly: Developmental neurotoxicity (DNT) assay, light/dark locomotor behavior test. The format is in vivo, Danio rerio. The conditions noted are these: for Developmental neurotoxicity / locomotor activity outcome / Concentration causing hyperactivity in D1 period / Concentration causing hyperactivity in D2 period / Concentration causing hyperactivity in L2 period / Concentration causing hyperactivity in L1 period: tested 6 dpf; for DNT assay phenotype: Table 5 summary, this study (some rows also list literature); for Concentration causing hyperactivity in D1 period: dark 1; for Concentration causing hyperactivity in D1 period / Concentration causing hyperactivity in D2 period / Concentration causing hyperactivity in L2 period / Concentration causing hyperactivity in L1 period: daily 0–5 dpf, vs 0.4% DMSO; for Concentration causing hyperactivity in D2 period: dark 2; for Concentration causing hyperactivity in L2 period: light 2. The method, then:
At 0 dpf, zebrafish embryos were bleached as previously described ([Tal et al. 2017]). A single embryo at the dome-to-epiboly stages ([Kimmel et al. 1995]) was placed into each individual well of a 96-well plate containing a 40-μm nylon mesh filter (Millipore, Catalog No. MANMN4010) with 400μL of 10% Hanks’ balanced salt solution (HBSS) per well. Filter inserts containing zebrafish embryos were transferred to 96-well culture trays (Millipore, Catalog No. MAMCS9610) containing 250μL of 10% HBSS ([Westerfield 2007]) and 1μL of 250× working solutions per well. A final concentration of 0.4% DMSO was used for all exposure groups and as a vehicle control. In the case of GenX Free Acid in Study 2 (Figure 1), DI water was used as a vehicle control. Daily, from 1–5 dpf, plates underwent 100% media changes to refresh chemical dosing solutions by blotting (Brandel; Catalog No. FPXLR-196) and transferring mesh inserts containing zebrafish to new bottom plates (Millipore; Catalog No. MAMCS9610). To minimize evaporation, plates were sealed (Biorad; Catalog No. MSA5001) and wrapped with parafilm. Plates were maintained on a 14 h:10 h light cycle at 26.0°C and scored daily for death, malformations, hatching, and swim bladder inflation. At 6 dpf, plates were evaluated by two independent observers and DevTox or DNT assays were performed or media and tissue were collected for analytical chemistry analyses as described below.
To increase the likelihood of observing behavioral effects in morphologically normal larvae, the highest concentration evaluated in the DNT assay was the lowest observed effect concentration (LOEC) determined in DevTox assay. Zebrafish were exposed in parallel to 4.4, 7.9, 14.0, 25.1, 44.8, or 80.0μM PFOA, PFHxS, PFHxA, or ADONA or 0.2, 0.3, 0.6, 1.0, 1.8, or 3.1μM PFOS or 0.4% DMSO. Subsequently, as part of Study 1, exposure to 4.4, 7.9, 14.0, 25.1, 44.8, or 80.0μM PFESA1, or 0.4% DMSO was evaluated. In Study 2, zebrafish were exposed to 4.4, 7.9, 14.0, 25.1, 44.8, or 80.0μM GenX Free Acid, or DI water. In Study 3, to increase the likelihood of observing malformations with shorter-chain compounds at multiple test concentrations, the highest concentration evaluated was 100.0μM . Zebrafish were exposed to 5.5, 9.8, 17.6, 31.4, 56.0, or 100.0μM PFBS; 3.1, 5.5, 9.8, 17.6, 31.4, or 56.0μM PFHxS; 1.7, 3.1, 5.5, 9.8, 17.6, or 31.4μM PFHpS; or 0.5, 1.0, 1.7, 3.1, 5.5, or 9.8μM PFOS, or 0.4% DMSO. Subsequently, as part of Study 3, zebrafish were exposed to 3.1, 5.5, 9.8, 17.6, 31.4, or 56.0μM PFPeS, or 0.4% DMSO. Chemical exposures and assessments were performed daily, as described above. To evaluate swimming behavior in a light/dark behavior test, microtiter plates were placed in a dark, temperature-controlled behavior testing room set to 26.0°C for at least 2 h prior to testing. At the time of testing, microtiter plates were placed on a Noldus tracking apparatus. Locomotor activity was recorded (30 frames/s) for a total of 60 min consisting of a 20-min dark acclimation period (0 lux) that was not analyzed followed by a 40-min testing period consisting of a 20-min light period (5.0 lux) and 20-min dark period (0 lux). Videos were analyzed using Ethovision software (version 3.1; Noldus Information Technology) as previously described ([Jarema et al. 2015]). Locomotor activity was collected for each individual fish for each 2-min period (minimum distance moved, set to 0.135cm ). Thus, for a 40-min test, 20 data points were collected per larvae. […] Four additional criteria for inclusion of individual larvae were applied. One, all larvae that were identified as abnormal, severely abnormal, or dead were excluded. Two, larvae with uninflated swim bladders were removed from analyses. Three, individual larvae that moved <2cm in either […] dark period were removed.

Series [2] in a line: GenX Free Acid stock degradation / stability in DMSO. The format is physicochemical. The conditions noted are these: DMSO as diluent/vehicle.
Series [3] relates to zebrafish. Conditions: Table 5 summary, cited from earlier work.
Series [4] has as its system zebrafish. Conditions: cited from earlier work; for EC50: previously published zebrafish DevTox assay data, read-out: EC50 for developmental toxicity.
[5] abbreviates: Study 1, 4.4–80.0 μM daily 0–5 dpf, 0.4% DMSO.
Where [6] appears, read: Study 1, light 1 (first 10 min light).

Entries after “also recorded” stand apart in the source; their conditions may differ. Like-named read-outs stand apart in the source and are kept apart here.

Regarding `O=C(O)C(F)(F)C(F)OC(F)(F)C(F)(F)C(F)(F)OC(F)(F)F` (stereo not drawn) [ADONA, 4,8-Dioxa-3H-perfluorononanoate], the “Developmental neurotoxicity / locomotor activity outcome” value in the series on zebrafish [1] (setting [5]) is on record as “did not exhibit differences in locomotor activity; also recorded: failed to provoke developmental toxicity or developmental neurotoxicity; also recorded: negative”. The DNT assay phenotype entry in the series with zebrafish [1] was “Negative^a”.

For the compound `O=C(O)C(F)(OC(F)(F)C(F)(F)C(F)(F)F)C(F)(F)F` (stereo not drawn) [GenX Free Acid, Perfluoro-2-propoxypropanoic acid], the “Developmental neurotoxicity / locomotor activity outcome” value with zebrafish [1] (Study 2, 4.4–80.0 μM in DI water daily 0–5 dpf) is listed as “negative; also recorded: failed to provoke developmental toxicity or developmental neurotoxicity”. For the same compound, the DNT assay phenotype entry in the series on zebrafish [1] is recorded as “Negative^a”. The “Stability in DMSO” value in series [2] was “unstable in DMSO; also recorded: not stable in DMSO”.

For `O=S(=O)(O)C(F)(F)C(F)(F)OC(F)(C(F)(F)F)C(F)(F)OC(F)=C(F)F` (stereo not drawn) [PFESA1, Perfluoro-3,6-dioxa-4-methyl-7-octene-1-sulfonic acid], the “Developmental neurotoxicity / locomotor activity outcome” value in the series with zebrafish [1] (setting [5]) is “did not exhibit differences in locomotor activity; also recorded: failed to provoke developmental toxicity or developmental neurotoxicity; also recorded: negative”. For the same compound, the DNT assay phenotype result in the series on zebrafish [1] was “Negative^a”.

On to `O=C(O)C(F)(F)C(F)(F)C(F)(F)C(F)(F)C(F)(F)F` [PFHxA, Perfluorohexanoic acid], for which the “Developmental neurotoxicity / locomotor activity outcome” value with zebrafish [1] (setting [5]) was “hyperactivity in the L2, D1, and D2 periods”. For the same compound, in the series with zebrafish [1] (Study 1), the “Concentration causing hyperactivity in D1 period” value lay within 14.0 to 25.1 µM, the “Concentration causing hyperactivity in D2 period” value is 14.0 to 25.1 µM and the “Concentration causing hyperactivity in L2 period” value was 25.1 µM. Also, the DNT assay phenotype entry in the series on zebrafish [1] is “Hyperactivity^a”.

For the compound `O=S(=O)(O)C(F)(F)C(F)(F)C(F)(F)C(F)(F)C(F)(F)C(F)(F)F` [PFHxS, Perfluorohexanesulfonic acid], the DNT assay phenotype entry in the series with zebrafish [3] (ref Khezri et al. 2017) is “Negative”; with zebrafish [1], “Hyperactivity^a”. Besides, the values for the EC50 in the series on zebrafish [4] (ref Padilla et al. 2012) and with zebrafish [4] (ref Truong et al. 2014) were 116 µM and 115 µM, respectively. Also, in the series on zebrafish [1] (setting [6]), the “Concentration causing hyperactivity in L1 period” value lay in the range of 14.0 to 25.1 µM. Further, the “Concentration causing hyperactivity in L2 period” value in the series with zebrafish [1] (Study 1) was 14.0 µM; in the series on zebrafish [1] (Study 3) it was 17.6 to 31.4 µM. For the same compound, the “Concentration causing hyperactivity in D1 period” value in the series with zebrafish [1] (Study 3) was determined as 17.6 µM. Also, the “Concentration causing hyperactivity in D2 period” value in the series on zebrafish [1] (Study 3) is 17.6 µM.

Consider `O=C(O)C(F)(F)C(F)(F)C(F)(F)C(F)(F)C(F)(F)C(F)(F)C(F)(F)F` [PFOA, Perfluoro-n-octanoic acid], for which the DNT assay phenotype entry was “Hyperactivity” in the series on zebrafish [3] (ref Ulhaq et al. 2013b) and “Negative” in the series with zebrafish [1]. Besides, the DevTox assay phenotype entry with zebrafish [4] (Table 5 summary, zebrafish, ref Hagenaars et al. 2011, Jantzen et al. 2016, Ulhaq et al. 2013a) is given as “Positive”. The “Developmental neurotoxicity / locomotor activity outcome” value with zebrafish [1] (setting [5]) is “did not exhibit differences in locomotor activity; also recorded: negative”.

Regarding `O=S(=O)(O)C(F)(F)C(F)(F)C(F)(F)C(F)(F)C(F)(F)C(F)(F)C(F)(F)C(F)(F)F` [PFOS, Perfluorooctanesulfonic acid], the DNT assay phenotype entry is given as “Hypoactivity” in the series with zebrafish [3] (ref Ulhaq et al. 2013b) and “Hyperactivity” in the series on zebrafish [1]. The results for the 50% effective concentration (EC50) in the series with zebrafish [4] (ref Padilla et al. 2012) and in the series on zebrafish [4] (ref Truong et al. 2014) were 42.3 µM and 3.5 µM, respectively. In addition, the “Concentration causing hyperactivity in D1 period” value in the series with zebrafish [1] (Study 1) was 0.6 to 1.8 µM; in the series with zebrafish [1] (Study 3), 1.0 µM. Also, the “Concentration causing hyperactivity in L1 period” value in the series on zebrafish [1] (setting [6]) is 1.0 µM; with zebrafish [1] (Study 3, light 1), 1.7 to 3.1 µM. For the same compound, the “Concentration causing hyperactivity in L2 period” value in the series with zebrafish [1] (Study 1) lay in the range of 0.6 to 1.8 µM; in the series with zebrafish [1] (Study 3), 1.7 to 3.1 µM. Also, in the series with zebrafish [1] (Study 3), the “Concentration causing hyperactivity in D2 period” value is listed as “no effect”.
